Assay results published in patent US10351559B2, “Maleate salts of a B-RAF kinase inhibitor, crystalline forms, methods of preparation, and uses therefore” (BeiGene, Ltd., priority 2015, dated 2019).
Counter-ions that a name gives are not always drawn.

Tests used:
[1] = nonclinical toxicity and safety pharmacology program
Description: A comprehensive nonclinical toxicity study program, including 28-day GLP studies in rats and dogs and several investigational studies, was conducted for the evaluation of the preclinical safety of Compound 1 Sesqui-Maleate (Crystalline Form A*). These studies took account the available regulatory guidance for preclinical development of anticancer drugs.

C-Raf (Y340D/Y341D) = target: T1, C-Raf (Y340D/Y341D) (Homo sapiens, UniProt P04049, Y340D/Y341D); assay: Raf kinase enzymatic assay (HTRF); format: biochemical
T1 construct: purchased Life Technologies PV3805
T1 sequence (P04049 whole entry Y340D/Y341D): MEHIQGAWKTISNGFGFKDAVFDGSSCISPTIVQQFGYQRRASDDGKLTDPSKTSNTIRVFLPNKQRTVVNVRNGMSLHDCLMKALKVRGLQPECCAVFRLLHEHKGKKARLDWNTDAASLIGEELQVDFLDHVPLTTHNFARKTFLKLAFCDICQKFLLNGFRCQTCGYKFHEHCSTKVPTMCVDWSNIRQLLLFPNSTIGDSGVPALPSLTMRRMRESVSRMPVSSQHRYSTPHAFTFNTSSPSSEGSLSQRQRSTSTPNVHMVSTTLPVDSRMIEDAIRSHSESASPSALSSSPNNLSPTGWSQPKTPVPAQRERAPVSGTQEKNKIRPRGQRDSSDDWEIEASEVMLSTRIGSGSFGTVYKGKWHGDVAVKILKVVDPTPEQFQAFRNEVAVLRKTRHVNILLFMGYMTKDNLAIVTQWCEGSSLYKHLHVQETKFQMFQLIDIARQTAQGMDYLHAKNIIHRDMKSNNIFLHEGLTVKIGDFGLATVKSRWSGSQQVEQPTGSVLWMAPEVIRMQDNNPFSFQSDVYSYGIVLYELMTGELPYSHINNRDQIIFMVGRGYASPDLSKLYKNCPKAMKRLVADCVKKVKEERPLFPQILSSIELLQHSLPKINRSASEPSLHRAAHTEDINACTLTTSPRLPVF
Description: (§1) Crystalline Form A* of Compound 1 Sesqui-Maleate was tested against recombinant B-Raf (V600E) (PV3849), C-Raf (Y340D/Y341D) (PV3805) and wild-type Braf (PV3848) from Life Technologies in kinase activity assays based on homogeneous time-resolved fluorescence (HTRF) methodology (Cisbio Bioassays). The assays were carried out in a reaction mixture containing RAF kinases, ATP at KM concentration, GST-tagged MEK1 (K97R) and Crystalline Form A* of Compound 1 Sesqui-Maleate or DMSO in buffer containing 25 mM Tris pH7.4, 10 mM MgCl2, 0.5 mM EGTA, 0.5 mM Na3VO4, 5 mM beta-glycerophosphate, 0.01% Triton X-100, 2.5 mM DTT and 0.1% BSA. The kinase was incubated with Crystalline Form A* of Compound 1 Sesqui-Maleate for 1 hr at room temperature (RT) and the reaction was initiated by the addition of ATP and GST-MEK1 (Full-length protein with K97R mutation, recombinant protein purified from bacterial expression system). After reaction at RT for 1 hr, stop/detection solution was added according to the manufacture's instruction (Cisbio Bioassays). The stop/detection solution contained Eu3+ cryptate-conjugated anti-phospho MEK1/2 (Ser217/221) rabbit polyclonal antibody and d2-conjugated anti-GST mouse monoclonal antibody in buffer containing 25 mM Tris pH7.4, 400 mM KF, 50 mM EDTA, 0.1% BSA and 0.01% Triton X-100. The TR-FRET signals (ratio of fluorescence emission at 665 nm over emission at 620 nm with excitation at 337 nm wavelength) were measured on a PHERAstar FS plate reader (BMG Labtech) after 1.5 hr incubation. Phosphorylation of MEK1 led to the binding of anti-phospho-MEK1/2 antibody to GST-MEK1 protein that place fluorescent donor (Eu3+ crypate) in close proximity to the accepter d2 on the anti-GST antibody, thus resulting in a high degree of fluorescence resonance energy transfer from the donor fluorophore (at 620 nm) to the acceptor fluorophore (at 665 nm). The IC50 for Crystalline Form A* of Compound 1 Sesqui-Maleate was derived from fitting the dose-response % inhibition data to the four-parameter logistic model by Graphpad Prism software.

wild-type Braf = wild-type Braf (Homo sapiens, UniProt P15056); assay: Raf kinase enzymatic assay (HTRF); format: biochemical
wild-type Braf, sequence (P15056 whole entry): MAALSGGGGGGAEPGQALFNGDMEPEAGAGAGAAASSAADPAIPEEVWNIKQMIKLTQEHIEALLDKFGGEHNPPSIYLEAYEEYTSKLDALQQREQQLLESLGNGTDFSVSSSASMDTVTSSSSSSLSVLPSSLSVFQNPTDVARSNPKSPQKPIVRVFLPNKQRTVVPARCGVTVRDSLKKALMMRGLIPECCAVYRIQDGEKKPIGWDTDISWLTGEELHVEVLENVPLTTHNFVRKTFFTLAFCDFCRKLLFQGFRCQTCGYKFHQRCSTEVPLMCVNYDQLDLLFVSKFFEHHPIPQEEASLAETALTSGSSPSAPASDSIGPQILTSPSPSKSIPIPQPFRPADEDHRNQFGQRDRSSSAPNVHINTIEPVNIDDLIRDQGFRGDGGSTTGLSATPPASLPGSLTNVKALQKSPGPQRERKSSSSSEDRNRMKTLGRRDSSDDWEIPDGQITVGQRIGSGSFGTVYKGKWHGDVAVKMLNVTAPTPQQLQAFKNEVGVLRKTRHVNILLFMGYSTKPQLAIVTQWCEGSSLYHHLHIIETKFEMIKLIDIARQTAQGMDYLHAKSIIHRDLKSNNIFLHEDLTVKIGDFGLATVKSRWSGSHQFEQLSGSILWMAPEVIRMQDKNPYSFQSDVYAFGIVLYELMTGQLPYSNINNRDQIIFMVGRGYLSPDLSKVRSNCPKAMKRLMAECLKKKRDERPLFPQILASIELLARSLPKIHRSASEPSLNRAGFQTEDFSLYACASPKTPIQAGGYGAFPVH
Description: as §1

[2] = pharmacokinetic study (LC-MS/MS); format: in vivo, Sprague-Dawley rats; settings: rats
Excerpt: The fully-validated LC-MS/MS method was well used for the pharmacokinetic (PK) studies of Crystalline Form A* of Compound 1 Sesqui-Maleate in Sprague-Dawley rats and beagle dogs following single- and multiple-dose administrations.

CYP2C19 = CYP2C19 (Homo sapiens, UniProt P33261); assay: CYP inhibition; format: in vitro ADME
CYP2C19, sequence (P33261 whole entry): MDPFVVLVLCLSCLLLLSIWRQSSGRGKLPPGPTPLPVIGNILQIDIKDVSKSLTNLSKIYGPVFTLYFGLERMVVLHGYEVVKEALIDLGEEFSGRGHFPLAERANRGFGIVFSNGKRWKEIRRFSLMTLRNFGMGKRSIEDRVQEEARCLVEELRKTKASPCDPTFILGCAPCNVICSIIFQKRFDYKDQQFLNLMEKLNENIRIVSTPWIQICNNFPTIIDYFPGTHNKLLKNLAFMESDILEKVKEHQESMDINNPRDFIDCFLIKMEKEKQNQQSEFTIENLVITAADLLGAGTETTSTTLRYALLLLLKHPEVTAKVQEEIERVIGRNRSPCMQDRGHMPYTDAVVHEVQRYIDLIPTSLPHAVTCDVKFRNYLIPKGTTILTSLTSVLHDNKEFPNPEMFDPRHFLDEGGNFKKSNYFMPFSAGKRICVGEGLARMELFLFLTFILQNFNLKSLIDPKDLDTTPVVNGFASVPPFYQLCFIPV

## O=C1CCc2c(Oc3ccc4c(c3)[C@@H]3[C@H](O4)[C@H]3c3nc4ccc(C(F)(F)F)cc4[nH]3)ccnc2N1 [5-(((1R,1aS,6bR)-1-(6-(trifluoromethyl)-1H-benzo[d]imidazol-2-yl)-1a,6b-dihydro-1H-cyclopropa[b]benzofuran-5-yl)oxy)-3,4-dihydro-1,8-naphthyridin-2(1H)-one sesqui-maleate salt]
[1]; additional toxicity testing
  teratogenic, mutagenic and reproductive toxicity: no teratogenic, mutagenic and reproductive toxicity
[1]; incl. 28-day GLP studies in rats and dogs
  toxicology and safety pharmacology profile: favorable toxicology and safety pharmacology profile
[1]; safety pharmacological test
  effect on autonomic nervous system activity or the central nervous system: no effect
  effect on respiration, blood pressure and circulatory function: no effect
C-Raf (Y340D/Y341D); C-RAF
  enzyme inhibition: potent and reversible inhibitor
C-Raf (Y340D/Y341D); CRAF Y340, 341D, ATP at KM
  IC50: 3.5 nM
wild-type Braf; WT-BRAF, ATP at KM
  IC50: 69 nM
wild-type Braf; wild-type B-RAF
  enzyme inhibition: potent and reversible inhibitor
[2]; Sprague-Dawley, rat, in vivo, po
  bioavailability: 51 to 102%
[2]; Sprague-Dawley, rat, in vivo, after oral administration, read-out: elimination half-life
  half-life: 4.4 to 9.4 h
[2]
  accumulation after multiple dosing: ~2 fold
[2]; 0.5 to 15 mg/kg
  kinetics over dose range: linear
CYP2C19
  IC50: 1960 nM
